{"source": "patent US20250041427A1", "about": "“DINUCLEAR PHOSPHANE GOLD(I) COMPLEXES FOR TREATING CANCER” (priority 2023, published 2025)", "key": {"[1]": {"system": "MCF-7 cells", "test": "AlamarBlue cell proliferation assay, MCF-7", "type": "cell-based, human", "conditions": "24 hours exposure, mean of three replicates ± standard error", "method": "(§1) Human colorectal carcinoma cell line HCT116 and human breast adenocarcinoma cell line MCF-7 were purchased from ATCC. The cells were cultured in Dulbecco's Modified Eagle's Medium (DMVEM) complemented with 10% fetal bovine serum (FBS) at 37° C. (5% CO2 and 95% humidity). 100 µg/mL streptomycin and 100 U/mL penicillin were used in the media to prevent microbial growth. Assays were performed on cells from passages 3-8.\n(§2) AlamarBlue® was used to determine the drug-dose response according to the manufacturer's instruction (Thermo Fisher, Waltham, Massachusetts, United States). The samples of complexes were diluted to a working concentration in DMVEM before their exposure to the cancer cells. The cancer cells were cultivated in 96-well plates for 24 hours. The cell culture medium was then removed and the diluted test compounds were added to the wells. The well plates were incubated for 24 hours at 37° C. with 5% CO2. Subsequently, the cell culture medium was removed for the addition of 10% AlamarBlue® (diluted in DMEM) to each well. The plates were incubated for 3 hours at 37° C. protected from light. The cytotoxicity/proliferation was measured using fluorescence spectrophotometry with fluorescence being read at an excitation wavelength of 560 nm and an emission wavelength of 590 nm. To calculate the percentage difference in reduction between treated and control cells in cytotoxicity/proliferation assays, the following formula was used: […]\n(§3) The prepared […] complexes 1-4 were evaluated for their inhibition of cell proliferation towards two human cancer cell lines: HCT116 and MCF-7. The cells were treated with a range of concentrations (0.3, 1, 3, 10, 100 μM) of the complexes for 24 hours. The cells viability were then assessed and half maximal inhibitory concentration (IC50) values were calculated thereafter. […] These values are about 6- to 20-fold lower than cisplatin IC50 values."}, "[2]": {"system": "HCT116 cells", "test": "AlamarBlue cell proliferation assay, HCT116", "conditions": "for IC50: read-out: Half maximal inhibitory concentration (IC50) HCT116, 24 hours exposure, AlamarBlue, mean of three replicates ± standard error", "method": "as §1, §2, §3"}, "[3]": {"system": "MCF-7 cancer cell line", "conditions": "value from cited reference; read-out: IC50 MCF-7 (literature complexes); cited from earlier work"}, "[4]": {"system": "glioblastoma (U87-MG) cancer cells", "conditions": "cited from earlier work"}, "[5]": {"system": "prostate (PC-3) cancer cells", "conditions": "PC-3 cells; cited from earlier work"}, "[6]": {"system": "HCT116 cancer cell line", "conditions": "value from cited reference; read-out: IC50 HCT116 (literature complexes); cited from earlier work"}, "[7]": {"test": "Solution chemistry / stability by UV-Vis spectrophotometry", "type": "physicochemical", "conditions": "room temperature; complexes 2, 3 in DMSO:H2O (3:7); complex 4 in 100% DMSO and DMSO:H2O (1:1)", "method": "The solution chemistry of complexes 2, 3, and 4 ([…], 10 mL) was investigated using ultraviolet-visible (UV-Vis) spectrophotometry at room temperature. The studied complexes are partially soluble in aqueous solution. Complexes 2 and 3 were dissolved in the mixture of DMSO:H2O (3:7), where H2O is a co-solvent of DMSO. A UV-Vis experiment was performed initially at time=0 (2 and 3) and at time=24 hours (2′ and 3′) (FIG. 26A). Furthermore, complex 4 was dissolved in 100% DMSO and a mixture of (DMSO:H2O) (1:1), where H2O is co-solvent of DMSO. Further, a UV-Vis experiment was performed initially at time=0 (4) and at time=24 hours."}, "[8]": {"system": "MCF-7 cells", "test": "Mitochondrial membrane potential (ΔΨm), JC-1 dye", "type": "cell-based, human", "conditions": "MCF-7, 24 hours", "method": "MCF-7 cells (1×10^4 cells per well in a 96-well plate) were treated with different concentrations of complexes, and untreated cells were used as a negative control. After treatment for 24 hours, 5,5′,6,6′-tetrachloro-1,1′,3,3′-tetraethylbenzimidazolocarbocyanine iodide (JC-1) dye (Thermo Fisher, Waltham, Massachusetts, United States) was added to each well containing the cells. The staining was performed following the protocol provided by the manufacturer. A fluorescence spectrophotometer was used to measure the fluorescence of JC-1-stained cells, and fluorescence signals in the red and green channels were recorded separately.\nTo examine the effect of complexes 1-4 on mitochondrial membrane potential (ΔΨm), JC-1 fluorescence dye was used to stain intact and depolarized mitochondria in MCF-7 cells following exposure to the complexes."}, "[9]": {"conditions": "read-out: Half maximal inhibitory concentration (IC50) MCF-7"}}, "note": "Where two headings read alike, the source gives them in different places.", "data": [{"compound": "N.N.[Cl][Pt][Cl]", "note": "[Cisplatin, reference compound]", "values": [{"measurement": "IC50", "setting": "[1]; [9]", "value": "21100 ± 1410", "unit": "nM"}, {"measurement": "IC50", "setting": "[2]", "value": "20800 ± 930", "unit": "nM"}]}, {"compound": "[C](#Cc1ccncc1)[Au][PH](CCCC[PH]([Au][C]#Cc1ccncc1)(c1ccccc1)c1ccccc1)(c1ccccc1)c1ccccc1", "note": "[[Au2(dppb)(4-ep)2]]", "values": [{"measurement": "IC50", "setting": "[3]", "value": "2800 ± 600", "unit": "nM"}]}, {"compound": "COc1cccc(OC)c1[PH]([Au+][PH](c1c(OC)cccc1OC)(c1c(OC)cccc1OC)c1c(OC)cccc1OC)(c1c(OC)cccc1OC)c1c(OC)cccc1OC.F[P-](F)(F)(F)(F)F", "note": "[[Au{P(2,6-dimethoxyphenyl)3}2]PF6]", "values": [{"measurement": "fold higher cytotoxicity than cisplatin", "setting": "[4]", "value": 30, "unit": "fold"}, {"measurement": "fold higher cytotoxicity than cisplatin", "setting": "[5]", "value": 30, "unit": "fold"}]}, {"compound": "Chlorotriphenylposphine-1,3-bis(diphenylphosphino)propanegold(I) [[Au(dppp)(PPh3)Cl]]", "values": [{"measurement": "IC50", "setting": "[6]", "value": 4170, "unit": "nM"}]}, {"compound": "[Au2(Bdbp)(Dpma)]P2F12 [Complex 4]", "values": [{"measurement": "IC50", "setting": "[1]; listed as 4, read-out: Half maximal inhibitory concentration (IC50) MCF-7", "value": "1200 ± 320", "unit": "nM"}, {"measurement": "IC50", "setting": "[1]; listed as complex 4, read-out: Half maximal inhibitory concentration (IC50) MCF-7", "value": 1800, "unit": "nM"}, {"measurement": "stability in solution (UV-Vis, time 0 vs 24 hours)", "setting": "[7]", "value": "high stability"}, {"measurement": "IC50", "setting": "[2]", "value": 930, "unit": "nM"}, {"measurement": "effect on mitochondrial membrane potential (ΔΨm) at 2.5 μM", "setting": "[8]", "value": "most reduction of ΔΨm"}]}, {"compound": "[Au2(Bdbp)(Dppb)]P2F12 [Complex 3]", "values": [{"measurement": "IC50", "setting": "[1]; [9]", "value": "1300 ± 540", "unit": "nM"}, {"measurement": "stability in solution (UV-Vis, time 0 vs 24 hours)", "setting": "[7]", "value": "less stability"}, {"measurement": "IC50", "setting": "[2]", "value": "1800 ± 220", "unit": "nM"}, {"measurement": "increase of cytotoxic effect on lengthening linker from 2 carbons (complex 1) to 4 carbons", "setting": "[2]; relative to complex 1, FIG. 24A/24E vs 24C/24G (HCT116 and MCF-7)", "value": "about 4.5 fold"}]}, {"compound": "[Au2(Bdbp)(Dppe)]P2F12 [Complex 1]", "values": [{"measurement": "IC50", "setting": "[1]; [9]", "value": 7900, "unit": "nM"}, {"measurement": "IC50", "setting": "[2]", "value": 8200, "unit": "nM"}, {"measurement": "effect on mitochondrial membrane potential (ΔΨm) at 2.5 μM", "setting": "[8]", "value": "least reduction of ΔΨm"}]}, {"compound": "[Au2(Bdbp)(Dppp)]P2F12 [Complex 2]", "values": [{"measurement": "IC50", "setting": "[1]; [9]", "value": "2300 ± 240", "unit": "nM"}, {"measurement": "IC50", "setting": "[2]", "value": "3600 ± 370", "unit": "nM"}]}]}
